Experimental data taken from patent US11944605B2, “Rapamycin analogs and uses thereof” (Janssen Pharmaceutica NV, priority 2018, dated 2024).
Entries after “also recorded” stand apart in the source; their conditions may differ. Read-outs that look alike come from different tables or passages of the source.

What was measured:
[1] = system: mTORC2 (Akt phosphorylation) in TSC−/− MEF cells; experiment: Western blot, mTORC2 pathway (pAkt) in TSC−/− MEF cells; assay type: cell-based, mouse
Experimental: (§1) The methods employed were substantially similar to those described above. Compounds were evaluated in PC3 cells, Jurkat cells, wild-type mouse embryotic fibroblast (MEF) cells, tuberous sclerosis 2 (TSC2) negative (TSC −/−) MEF cells, and tuberous sclerosis 2 (TSC2) positive (TSC +/+) MEF cells. Cells were incubated with compounds of the present invention for various time periods (e.g., 5 minutes, 15 minutes, 30 minutes, 90 minutes, 24 hours, or 48 hours), and evaluated according to known methodologies, such as those herein described.

[2] = system: mTORC1 pathway in tuberous sclerosis 2 (TSC2) positive (TSC+/+) MEF cells; experiment: Western blot, mTORC1 pathway in TSC+/+ MEF cells; assay type: cell-based, mouse
Experimental: as §1

[3] = system: mTORC2 (Akt phosphorylation) in TSC+/+ MEF cells; experiment: Western blot, mTORC2 pathway (pAkt) in TSC+/+ MEF cells; assay type: cell-based, mouse; settings: 90 minutes
Experimental: as §1

IFN-γ production = IFN-γ production in allogenic mixed lymphocyte reaction; assay type: cell-based; settings: for IC50: read-out: IFN-γ Inhibition IC50s
Experimental: Assessment of Effect on IFN-γ Production in Allogenic Mixed Lymphocyte Reaction
The effect of rapamycin, everolimus, I-29, and I-117 on IFN-y production was evaluated in an allogenic mixed lymphocyte reaction (E.g., Eleftheriadis, T. et al., Int. J. Mol. Med., 37(5): 1412-20 (2016) https://doi.org/10.3892/ijmm.2016.2547).

[4] = system: 4E-BP1 phosphorylation in PC3 cells; experiment: Western blot, 4E-BP1 phosphorylation in PC3 cells; assay type: cell-based; settings: 24 hours
[5] = system: mTORC2 (Akt phosphorylation) in wild-type MEF cells; experiment: Western blot, mTORC2 pathway (pAkt) in wild-type MEF cells; assay type: cell-based, mouse; settings: 24 hours
Experimental: as §1

[6] = system: mTORC1 pathway (pS6K1 T389) in PC3 cells; experiment: Western blot, mTORC1 pathway (pS6K1) in PC3 cells; assay type: cell-based
Procedure, shortened: (§2)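 Triton lysates analysed by Western blot for pS6K1 and pAkt, detected with IRDye 800 anti-rabbit secondary on a Li-Cor imager.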

[7] = system: mTORC1 pathway in wild-type MEF cells; experiment: Western blot, mTORC1 pathway in wild-type MEF cells; assay type: cell-based, mouse; settings: 24 hours
Experimental: as §1

[8] = system: mTORC2 (Akt phosphorylation) in Jurkat cells; experiment: Western blot, mTORC2 pathway (pAkt) in Jurkat cells; assay type: cell-based; settings: 24 hrs
Experimental: as §1

[9] = system: pS6K1 (p-p70 S6 Kinase (Thr389)) in MCF-7 cells; experiment: AlphaLISA Ultra pS6K1 Assay; assay type: cell-based; settings: Homo sapiens, 1.5 h; MCF7 cells, 90 min
Procedure, shortened: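 MCF-7 cells were seeded for 20–24 h, refed with fresh medium for 2 h, then treated with compound for 90 min at 0.5% final DMSO. Lysates were frozen at −80 °C, thawed and assayed by AlphaLISA with acceptor then donor beads, 2 h each.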

[10] = system: mTORC2 pathway (Akt phosphorylation) in PC3 cells; experiment: Western blot, mTORC2 pathway (pAkt) in PC3 cells; assay type: cell-based; settings: for inhibition of mTORC2 (Akt phosphorylation): 24 hours
Procedure, shortened: as §2

[11] = system: mTORC1 pathway in tuberous sclerosis (TSC2) negative (TSC−/−) MEF cells; experiment: Western blot, mTORC1 pathway in TSC−/− MEF cells; assay type: cell-based, mouse
Experimental: as §1

mTORC1 over mTORC2 = experiment: mTORC1 selectivity over mTORC2 at 24 hrs (Western blot based pS6K1 and pAKT assay); assay type: cell-based; settings: 24 hrs
[12] = system: mTORC1 pathway in Jurkat cells; experiment: Western blot, mTORC1 pathway in Jurkat cells; assay type: cell-based; settings: 24 hrs
Experimental: as §1

[13] = system: glucose uptake in human adipocytes; settings: 0.01 μM; cited from earlier work
[14] = Glucose tolerance (ipGTT) during chronic treatment in lean C57Bl/6 mice; assay type: in vivo; settings: chronic treatment 15 days, I-29 10 mg/kg PO, rapamycin 10 mg/kg IP
Experimental: Assessment of Effect of Chronic Treatment with I-29 on Glucose Tolerance and Insulin Sensitivity in Lean C57Bl/6 Mice
C57Bl/6 mice (n=12; 8 weeks of age) were randomized and baseline measurements (weight, fasting glucose, and fasting insulin) were measured four (4) days prior to the administration of compounds or vehicle. Animals were then treated with I-29 (10 mg/kg PO), rapamycin (10 mg/kg IP) or vehicle (PO or IP) for 19 days. On day 7 and 14 animals were weighed and fed glucose and fed insulin levels were evaluated. Animals were fasted overnight on day 14 and on day 15 fasting insulin and an intraperitoneal glucose tolerance test (ipGTT) were evaluated. On day 19 animals were sacrificed one (1) hour after compound or vehicle administration. Tissues were harvested for evaluating compound levels and pharmacodynamics.

Lmn−/− mice = settings: short-term treatment; cited from earlier work
[15] = system: T389 of S6K1 (an mTORC1 substrate); settings: PC3, HEK-293T, HeLa, and H460 cells, 1 or 24 hour treatments; cited from earlier work
[16] = system: AKT (PKB) Ser473 phosphorylation; settings: human adipocytes, 0.01 μM; cited from earlier work
[17] = system: Akt (an mTORC2 substrate); settings: cited from earlier work
Akt phosphorylation = settings: mice treated daily for 1 week; cited from earlier work
[18] = Pharmacokinetic properties in C57Bl/6 mice; assay type: in vivo; settings: for half-life: read-out: Terminal T1/2 (converted)
Experimental: Pharmacokinetic Properties
The pharmacokinetic properties of compounds of the present invention were evaluated in C57Bl/6 mice and compared with rapamycin. Animals were fasted overnight prior to administration of I-29 or rapamycin (1 mg/kg IV, 10 mg/kg PO, or 2 mg/kg IP). Animals were bled at time intervals for up to 48 hours following administration of compounds. Whole blood from each mouse was indivisually collected in polypropylene tubes and immediately centrifuged. Alloquates of the separated plasma were promptly prepared for HPCL analysis.

Question: Which “inhibition of mTORC2 (Akt phosphorylation)” value (“inhibition of mTORC2” for short) ([1]; 90 minutes) does the source give for `CO[C@@H]1C[C@H](C[C@@H](C)[C@@H]2CC(=O)[C@H](C)/C=C(\C)[C@@H](O)[C@@H](OC)C(=O)[C@H](C)C[C@H](C)/C=C/C=C/C=C(\C)[C@@H](OCCOCCO)C[C@@H]3CC[C@@H](C)[C@@](O)(O3)C(=O)C(=O)N3CCCC[C@H]3C(=O)O2)CC[C@H]1OCCO` [I-117, (21E,23E,25E,26E,34R,35S,36R,37R,39S,41S,43S,44S,45R,46R, 55R)-45,55-dihydroxy-43-[2-(2-hydroxyethoxy)ethoxy]-44-[(1R)-2-[(1S,3R, 4R)-4-(2-hydroxyethoxy)-3-methoxy-cyclohexyl]-1-methyl-ethyl]-46-methoxy-34,35,36,37,47,48-hexamethyl-66, 67-dioxa-56-azatricyclohexatriaconta-21,23,25(47),26(48)-tetraene-49, 50,51,52,53-pentone] here?
Answer: do not inhibit

Question: And the “inhibition of mTORC2” value ([1]; 24 hours)?
Answer: do not inhibit

Question: And the “inhibition of the mTORC1 pathway” value ([2]; 90 minutes)?
Answer: moderate concentration dependent inhibition

Question: And the “inhibition of mTORC2” value [3]?
Answer: do not inhibit

Question: What about the “inhibition of IFN-γ production” value (IFN-γ production) of the same compound?
Answer: did not inhibit

Question: And the IC50 (IFN-γ production)?
Answer: > 3000 nM

Question: And the “inhibition of 4E-BP1 phosphorylation” value [4]?
Answer: no inhibition

Question: And the “inhibition of mTORC2” value [5]?
Answer: do not inhibit

Question: What about the “inhibition of the mTORC1 pathway” value ([6]; PC3 cells, 24 hours) of the same compound?
Answer: strong inhibition

Question: And the “inhibition of the mTORC1 pathway” value [7]?
Answer: moderate inhibition; also recorded: strong inhibition

Question: What about the “inhibition of mTORC2” value [8] of the same compound?
Answer: do not inhibit

Question: And the IC50 [9]?
Answer: < 0.1 nM

Question: What about the “inhibition of mTORC2” value [10] of the same compound?
Answer: does not inhibit

Question: What about the “inhibition of the mTORC1 pathway” value ([11]; 90 minutes) of the same compound?
Answer: strong inhibition

Question: What about the “inhibition of the mTORC1 pathway” value ([11]; 24 hours) of the same compound?
Answer: strong inhibition

Question: What about the “mTORC1 selective @ 24 hrs” value (mTORC1 over mTORC2) of the same compound?
Answer: YES

Question: And the “inhibition of the mTORC1 pathway” value [12]?
Answer: strong inhibition

Question: With `CO[C@H]1C[C@@H]2CC[C@@H](C)[C@@](O)(O2)C(=O)C(=O)N2CCCC[C@H]2C(=O)O[C@H]([C@H](C)C[C@@H]2CC[C@@H](O)[C@H](OC)C2)CC(=O)[C@H](C)/C=C(\C)[C@@H](O)[C@@H](OC)C(=O)[C@H](C)C[C@H](C)/C=C/C=C/C=C/1C` [Rapamycin, rapamycin] as the compound, how does the glucose uptake [13] read?
Answer: reduced

Question: What about the “glucose intolerance in intraperitoneal glucose tolerance test (ipGTT)” value [14] of the same compound?
Answer: induced glucose intolerance

Question: And the “inhibition of the mTORC1 pathway” value ([2]; 90 minutes)?
Answer: strong inhibition

Question: What about the “inhibition of the mTORC1 pathway” value ([2]; 24 hours) of the same compound?
Answer: strong inhibition

Question: What about the enhanced survival (Lmn−/− mice) of the same compound?
Answer: ~50%

Question: And the S6K1 phosphorylation [15]?
Answer: inhibited

Question: And the “inhibition of IFN-γ production” value (IFN-γ production)?
Answer: significantly inhibited

Question: And the IC50 (IFN-γ production)?
Answer: 2.4 nM

Question: What about the “inhibition of 4E-BP1 phosphorylation” value [4] of the same compound?
Answer: no inhibition

Question: And the “inhibition of the mTORC1 pathway (pS6K1)” value ([6]; PC3 cells, 24 and 48 hours)?
Answer: significant reduction; also recorded: strong inhibition

Question: And the “inhibition of the mTORC1 pathway” value ([6]; PC3 cells, 30, 15, or 5 minutes)?
Answer: time dependent inhibition

Question: And the “inhibition of the mTORC1 pathway” value ([6]; PC3 cells, 90 minutes)?
Answer: strong inhibition

Question: What about the “inhibition of the mTORC1 pathway” value ([6]; PC3 cells, 24 hours) of the same compound?
Answer: strong inhibition

Question: And the “AKT (PKB) Ser473 phosphorylation” value [16]?
Answer: reduced

Question: What about the “inhibition of the mTORC2 pathway (Akt phosphorylation)” value ([10]; 24 and 48 hours) of the same compound?
Answer: inhibition; also recorded: inhibited

Question: What about the “inhibition of mTORC2” value [10] of the same compound?
Answer: dose dependent inhibition

Question: And the “inhibition of pAKT” value ([17]; HEK-293T cells)?
Answer: Partial inhibition

Question: What about the Akt phosphorylation ([17]; HeLa cells) of the same compound?
Answer: increase

Question: And the Akt phosphorylation ([17]; PC3 cells)?
Answer: strongly decreased

Question: And the “inhibition of the mTORC1 pathway” value ([11]; 24 hours)?
Answer: strong inhibition

Question: What about the “Akt phosphorylation in the thymus, adipose tissue, heart, and lung” value (Akt phosphorylation) of the same compound?
Answer: decreased

Question: What about the F ([18]; 2 mg/kg IP) of the same compound?
Answer: 35.1%

Question: What about the F ([18]; 10 mg/kg PO) of the same compound?
Answer: 0.8%

Question: And the AUC(0-inf) ([18]; mouse, plasma, 1 mg/kg IV)?
Answer: 3630 ng·h/mL

Question: And the AUC(0-t) ([18]; mouse, plasma, 1 mg/kg IV)?
Answer: 3620 ng·h/mL

Question: And the MRT inf ([18]; mouse, plasma, 1 mg/kg IV)?
Answer: 6.27 h

Question: What about the clearance ([18]; mouse, plasma, 1 mg/kg IV) of the same compound?
Answer: 4.6 mL/min/kg

Question: And the half-life ([18]; mouse, plasma, 1 mg/kg IV)?
Answer: 8.35 h

Question: What about the Vd ([18]; mouse, plasma, 1 mg/kg IV, read-out: Vss) of the same compound?
Answer: 1.73 L/kg

Question: And the AUC(0-inf) ([18]; mouse, plasma, 2 mg/kg IP)?
Answer: 2540 ng·h/mL

Question: And the AUC(0-t) ([18]; mouse, plasma, 2 mg/kg IP)?
Answer: 2480 ng·h/mL

Question: And the Cmax ([18]; mouse, plasma, 2 mg/kg IP)?
Answer: 614 ng/mL

Question: What about the Tmax ([18]; mouse, plasma, 2 mg/kg IP) of the same compound?
Answer: 0.25 h

Question: And the half-life ([18]; mouse, plasma, 2 mg/kg IP)?
Answer: 4.8 h

Question: What about the AUC(0-t) ([18]; mouse, plasma, 10 mg/kg PO) of the same compound?
Answer: 292 ng·h/mL

Question: And the Cmax ([18]; mouse, plasma, 10 mg/kg PO)?
Answer: 52.8 ng/mL

Question: What about the Tmax ([18]; mouse, plasma, 10 mg/kg PO) of the same compound?
Answer: 3 h
